Measured values taken from ChEMBL document CHEMBL1201862, “PubChem BioAssay data set” (2004).
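Results reflect a 48-hour exposure of cells in 96-well plates to compound at five concentrations. At the GI50, growth is halved.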 Activity calls are given as the source filed them. No stated cut-off is given here; in the data, active = GI50 up to about 1.1 µM and inactive = higher. Where a SMILES comes first, the peptide text is derived from it. [ ]: non-standard residue; d: D form. The star is where a group is joined. Phe(2-OMe) = COc1ccccc1C[CH](N)C(=O)O; Cbz = O=C(OCc1ccccc1)*; OBn = c1ccc(CO*)cc1

Experiments:
Assay in all cases: DTP human tumour cell line panel, 48 h
NCI-H23 = system: NCI-H23
MDA-N = system: MDA-N
SW-620 = system: SW-620
SK-OV-3 = system: SK-OV-3
RPMI-8226 = system: RPMI-8226
OVCAR-4 = system: OVCAR-4
RXF 393 = system: RXF 393
BT-549 = system: BT-549
UACC-257 = system: UACC-257
K562 = system: K562
EKVX = system: EKVX
OVCAR-5 = system: OVCAR-5
HCC 2998 = system: HCC 2998
Hs-578T = system: Hs-578T
OVCAR-3 = system: OVCAR-3
MOLT-4 = system: MOLT-4
COLO 205 = system: COLO 205
SK-MEL-28 = system: SK-MEL-28
HCT-116 = system: HCT-116
SK-MEL-2 = system: SK-MEL-2

Measured: GI50

COc1cc(OCc2ccc3nc(OC)c(OC)nc3c2)cc(OC)c1OC
inactive: NCI-H23 > 10 µM | MDA-N > 10 µM | SW-620 > 10 µM | SK-OV-3 > 10 µM | RPMI-8226 > 10 µM | OVCAR-4 > 8 µM | RXF 393 > 10 µM | BT-549 > 3.72 µM | UACC-257 > 10 µM | K562 > 10 µM | EKVX > 10 µM | OVCAR-5 > 10 µM | HCC 2998 > 10 µM | Hs-578T > 10 µM | OVCAR-3 > 10 µM | MOLT-4 > 10 µM | COLO 205 > 10 µM | SK-MEL-28 > 10 µM | HCT-116 > 10 µM

COC(=O)C(Cc1ccccc1OC)NC(=O)C(CC(=O)OCc1ccccc1)NC(=O)OCc1ccccc1 (stereo unspecified) (Cbz-Asp(OBn)-[Phe(2-OMe)]-OMe; configuration not given here)
inactive: NCI-H23 > 100 µM | MDA-N 95.7 µM | SW-620 > 100 µM | SK-MEL-2 > 100 µM | RPMI-8226 41 µM | RXF 393 70.8 µM | BT-549 > 100 µM | UACC-257 > 100 µM | K562 61.5 µM | EKVX > 100 µM | OVCAR-5 > 100 µM | HCC 2998 > 100 µM | Hs-578T > 100 µM | MOLT-4 33.7 µM | COLO 205 46.3 µM | SK-MEL-28 38.6 µM | HCT-116 55.5 µM

C=CCN(CC=C)Cn1c(=S)sc2ccccc21
inactive: NCI-H23 > 100 µM | MDA-N > 100 µM | SW-620 48.8 µM | SK-OV-3 91.4 µM | SK-MEL-2 > 100 µM | OVCAR-4 86.3 µM | RXF 393 > 100 µM | BT-549 > 100 µM | UACC-257 > 100 µM | EKVX > 100 µM | OVCAR-5 > 100 µM | HCC 2998 > 100 µM | Hs-578T > 100 µM | OVCAR-3 > 100 µM | MOLT-4 94.8 µM | COLO 205 48.6 µM | SK-MEL-28 37.5 µM | HCT-116 > 100 µM

COc1cc(CNc2nc3ccccc3nc2C(=O)O)cc(OC)c1OC
inactive: NCI-H23 > 100 µM | MDA-N > 100 µM | SW-620 > 100 µM | SK-OV-3 69.8 µM | RPMI-8226 > 100 µM | OVCAR-4 > 100 µM | RXF 393 94 µM | BT-549 > 100 µM | UACC-257 > 100 µM | K562 > 100 µM | EKVX 64.1 µM | OVCAR-5 > 100 µM | HCC 2998 > 100 µM | Hs-578T 42.1 µM | OVCAR-3 > 100 µM | MOLT-4 > 100 µM | COLO 205 > 100 µM | SK-MEL-28 > 100 µM | HCT-116 > 100 µM

COc1cc2c(OC)c(c1)CCCC1=CC(=O)C=C(CCC2)C1=O
inactive: NCI-H23 50.2 µM | MDA-N 15.2 µM | SW-620 32.1 µM | SK-OV-3 56.9 µM | RPMI-8226 7.6 µM | OVCAR-4 17.2 µM | RXF 393 26.7 µM | BT-549 33.3 µM | UACC-257 35 µM | K562 14.6 µM | EKVX 41.1 µM | OVCAR-5 > 100 µM | HCC 2998 43.5 µM | Hs-578T 30.9 µM | OVCAR-3 22.6 µM | MOLT-4 2.72 µM | COLO 205 21.9 µM | SK-MEL-28 54.2 µM | HCT-116 17.1 µM

O=C1Nc2cccc(Cl)c2/C1=C\c1c(Cl)nc2n1CCS2
inactive: NCI-H23 > 100 µM | MDA-N 45.6 µM | SW-620 > 100 µM | SK-OV-3 > 100 µM | SK-MEL-2 > 100 µM | RPMI-8226 > 100 µM | RXF 393 53.2 µM | BT-549 > 100 µM | UACC-257 > 100 µM | K562 > 100 µM | EKVX 84.7 µM | OVCAR-5 > 100 µM | HCC 2998 > 100 µM | Hs-578T > 100 µM | OVCAR-3 > 100 µM | MOLT-4 > 100 µM | COLO 205 > 100 µM | SK-MEL-28 > 100 µM | HCT-116 > 100 µM
